Tests used:
[1] = test system: resistant cell clones (SkMel28-R, 451Lu-R); test: real-time cell proliferation of BRAFi-resistant melanoma cells; format: cell-based, human; conditions: in combination with 5 or 10 μM PLX
Method: FIGS. 6A through 6H depict that KRASi Prevents Emergence of Resistance and KRAS Expression is Regulated Dynamically in Acquired Resistance to BRAFi. […] Asterisks indicate significant differences (p<0.05) as compared to according control (0 μM PLX). FIGS. 6E and 6F are exemplary Western blot images (FIG. 6E) depicting immunostaining of AKT, pAKT, ERK, pERK, and KRAS. Densitometric values (DM) are also shown, representing relative quantifications. Resistant cell lines 451Lu-R and SkMel28-R were treated with 0, 5, or 10 μM PLX for 8 hours, and according summarized quantification of KRAS protein expression (n=3, FIG. 6F).
FIGS. 7A through 7I present KRAS Inhibition Re-sensitizes BRAF Inhibitor Resistant Cells for Inhibition of Proliferation and Induction of Apoptosis. […] show real-time cell proliferation (exemplary proliferation curve depicted in FIG. 6A, summarized slopes of proliferation curves depicted in FIG. 6B) of PLX-resistant cells treated with si-KRAS (KR) or control si-RNA (CTR), respectively, in combination with 5 or 10 μM PLX. FIGS. 7C and 7D show real-time cell proliferation (exemplary proliferation curve depicted in […], summarized slopes of proliferation curves depicted in FIG. 7D) of PLX-resistant cells treated with Deltarasin (DR) or DMSO, respectively, in combination with 5 or 10 μM PLX, according to FIGS. 7A and 7B. […]

HCC tumor cells = test: tumor cell toxicity in HCC; format: cell-based, human; conditions: higher doses of DR (>8 μM)
PLC = conditions: DR doses
HCC cells = test: anchorage-dependent tumor cell growth; format: cell-based, human; conditions: low doses (6 μM)
Mel Juso cells [2] = test: long-term treatment, emergence of surviving tumor cells and drug resistance; format: cell-based, human; conditions: 28 days, IC50 or 2×IC50
[3] = test system: murine hepatoma cell line Hepa129; test: apoptosis by FACS analysis; format: cell-based; conditions: 24 hours
Method: FIGS. 12A through 12C depict Murine Hepatoma Cells (Hepta129) Sensitive for Small Molecule KRAS Inhibition in vitro and in vivo. […] is exemplary images (4-fold) depicting murine Hepatoma Cells (Hepa129) treated for 24 hours with Deltarasin (DR) and/or Sorafenib (SF) using different concentration of inhibitors.

[4] = test system: 451Lu-R and SkMel28-R cells; test: long-term treatment of PLX-resistant cell lines, surviving tumor cells; format: cell-based, human; conditions: 8 μM DR, 28 days
Mel Juso cells [5] = test: three-dimensional, anchorage-independent colony-forming assay; format: cell-based, human; conditions: Mel Juso (BRAFi primary resistant); DR 5 μM, PLX 10 μM, alone or combined
Text: FIGS. 5A through 5D show time-dependent measurement of colony diameters (exemplary data in top panels) in three-dimensional, anchorage-independent “colony-forming” assays (FIGS. 5A and 5B: Mel Im, FIGS. 5C and 5D: Mel Juso). Exemplary Images (middle) and corresponding quantification of colony diameters (bottom panels, summarized data of n=3 experiments at day 19 after seeding) are also depicted. […] Effects on i) colony formation (FIGS. 5A and 5C, treatment at day 1) and ii) proliferation of pre-formed colonies (FIGS. 5B and 5D, treatment at day 7 and 13) were analyzed. […] Cells were treated for 5 hours with DMSO, 5 μM Deltarasin (DR), 10 μM PLX, or a combination of 10 μM PLX and 5 μM DR. […] (FIG. 5H) Mel Im and Mel Juso were transfected with control si-RNA (si-CTR) or with si-KRAS (si-KR). Two subgroups (blue and red) were additionally treated with 10 μM PLX (Vemurafenib) for 24 hours, with subsequent flow cytometric quantification of tumor cell apoptosis according to FIG. 5G.

Question: With `c1ccc(Cn2c(-c3ccc(OC[C@H](C4CCNCC4)n4c(-c5ccccc5)nc5ccccc54)cc3)nc3ccccc32)cc1` [Deltarasin, (S)-1-Benzyl-2-(4-(2-(2-phenyl-1H-benzo[d]imidazol-1-yl)-2-(piperidin-4-yl)ethoxy)phenyl)-1H-benzo[d]imidazole] as the molecule, how does the “proliferation of PLX-treated, BRAFi-resistant melanoma cells” value [1] read?
Answer: Its value is “dose dependent inhibition of proliferation”.

Question: And the tumor cell toxicity (HCC tumor cells)?
Answer: Its tumor cell toxicity is “marked tumor cell toxicity”.

Question: And the inhibition of proliferation (PLC)?
Answer: Its inhibition of proliferation is “strong dose-dependent inhibition of proliferation”.

Question: What about the “anchorage-dependent tumor cell growth” value (HCC cells) of the same molecule?
Answer: The value was “suppressed”.

Question: What about the “surviving tumor cells after long-term treatment” value (Mel Juso cells [2]) of the same molecule?
Answer: The value was “no surviving tumor cells were detected”.

Question: What about the apoptosis [3] of the same molecule?
Answer: The apoptosis was “marked effects”.

Question: And the “emergence of surviving tumor cells (cross-resistance to DR)” value [4]?
Answer: Its value is “completely abolish the emergence of surviving tumor cells”.

Question: And the “three-dimensional colony formation and colony proliferation” value (Mel Juso cells [5])?
Answer: Its value is “markedly inhibited”.
